For orientation: MIC50 means an inhibitory concentration at the 50% level, which refers to growth in some studies and to a panel of isolates in others. Low readings indicate greater potency, high ones weaker potency. Usually MIC90 stands for the lowest concentration that inhibits either 90% of growth or 90% of the strains tested, depending on the study. Lower therefore signals higher susceptibility.

This passage reports MIC50 and MIC90 results from ChEMBL document CHEMBL1649463, “Capsular type and antibiotic resistance in Streptococcus agalactiae isolates from patients, ranging from newborns to the elderly, with invasive infections” (2009).

≈ marks a conversion by molar mass, not a printed value.

The assay relates to Streptococcus agalactiae. In words: Antimicrobial activity against Streptococcus agalactiae clinical isolates by agar dilution method. Format: functional. (In agar dilution the substance is mixed into plates at graded concentrations.)

`CC(=N)N1CC[C@H](SC2=C(C(=O)O)N3C(=O)[C@H]([C@@H](C)O)[C@H]3C2)C1` registered an MIC50 of 0.016 µg/mL (≈ 0.0471 µM) and an MIC90 of 0.031 µg/mL (≈ 0.0913 µM).
The like results for `C=CC1=C(C(=O)O)N2C(=O)[C@@H](NC(=O)/C(=N\O)c3csc(N)n3)[C@H]2SC1` were, in that order, 0.031 µg/mL (≈ 0.0784 µM) and 0.063 µg/mL (≈ 0.159 µM).
The molecule `CC1(C)S[C@@H]2[C@H](NC(=O)[C@H](N)c3ccc(O)cc3)C(=O)N2[C@H]1C(=O)O` [AMOXICILLIN] displayed an MIC50 of 0.063 µg/mL (≈ 0.172 µM) and an MIC90 of 0.125 µg/mL (≈ 0.342 µM).
The matching figures for `CC1(C)S[C@@H]2[C@H](NC(=O)[C@H](N)c3ccccc3)C(=O)N2[C@H]1C(=O)O` [AMPICILLIN]: 0.125 µg/mL (≈ 0.358 µM) and 0.125 µg/mL (≈ 0.358 µM).
The like results for `CO/N=C(\C(=O)N[C@@H]1C(=O)N2C(C(=O)OCOC(=O)C(C)(C)C)=C(/C=C\c3scnc3C)CS[C@H]12)c1csc(N)n1` [CEFDITOREN PIVOXIL] were, in that order, 0.031 µg/mL (≈ 0.0499 µM) and 0.031 µg/mL (≈ 0.0499 µM).
The molecule `CO/N=C(\C(=O)N[C@@H]1C(=O)N2C(C(=O)O)=C(COC(C)=O)CS[C@H]12)c1csc(N)n1` [CEFOTAXIME] gave an MIC50 of 0.031 µg/mL (≈ 0.0681 µM) and an MIC90 of 0.063 µg/mL (≈ 0.138 µM).
For `CN(C)CCn1nnnc1SCC1=C(C(=O)O)N2C(=O)[C@@H](NC(=O)Cc3csc(N)n3)[C@H]2SC1` [CEFOTIAM], the MIC50 stood at 0.5 µg/mL (≈ 0.951 µM) and the MIC90 turned out to be 0.5 µg/mL (≈ 0.951 µM).
`CC[C@H]1OC(=O)[C@H](C)[C@@H](O[C@H]2C[C@@](C)(OC)[C@@H](O)[C@H](C)O2)[C@H](C)[C@@H](O[C@@H]2O[C@H](C)C[C@H](N(C)C)[C@H]2O)[C@](C)(OC)C[C@@H](C)C(=O)[C@H](C)[C@@H](O)[C@]1(C)O` [CLARITHROMYCIN] returned an MIC50 of 0.125 µg/mL (≈ 0.167 µM) and an MIC90 of at least 64 µg/mL.
Molecule `CCC[C@@H]1C[C@@H](C(=O)N[C@@H]([C@H]2O[C@H](SC)[C@H](O)[C@@H](O)[C@H]2O)[C@H](C)Cl)N(C)C1` [CLINDAMYCIN] displayed an MIC50 of 0.063 µg/mL (≈ 0.148 µM) and an MIC90 of at least 64 µg/mL.
Take `CC[C@H]1OC(=O)[C@H](C)[C@@H](O[C@H]2C[C@@](C)(OC)[C@@H](O)[C@H](C)O2)[C@H](C)[C@@H](O[C@@H]2O[C@H](C)C[C@H](N(C)C)[C@H]2O)[C@](C)(O)C[C@@H](C)C(=O)[C@H](C)[C@@H](O)[C@]1(C)O` [ERYTHROMYCIN]: the MIC50 was 0.032 µg/mL (≈ 0.0436 µM) and the MIC90 was at least 64 µg/mL.
`C[C@H]1COc2c(N3CCN(C)CC3)c(F)cc3c(=O)c(C(=O)O)cn1c23.C[C@H]1COc2c(N3CCN(C)CC3)c(F)cc3c(=O)c(C(=O)O)cn1c23.O` [LEVOFLOXACIN] came in with an MIC50 of 2 µg/mL and an MIC90 of at least 64 µg/mL.
The like results for `C[C@@H](O)[C@H]1C(=O)N2C(C(=O)O)=C(S[C@@H]3CN[C@H](C(=O)N(C)C)C3)[C@H](C)[C@H]12` [MEROPENEM] were, in that order, 0.063 µg/mL (≈ 0.164 µM) and 0.063 µg/mL (≈ 0.164 µM).
The matching figures for `CC1(C)S[C@@H]2[C@H](NC(=O)Cc3ccccc3)C(=O)N2[C@H]1C(=O)O` [PENICILLIN G]: 0.063 µg/mL (≈ 0.188 µM) and 0.063 µg/mL (≈ 0.188 µM).
